The test system of the test is survivin. As to the kind of experiment: Survivin ELISA assay on normal human keratinocyte cultures, related to total proteins (BCA). Type of test: cell-based. The settings on record: forskolin 4 μg/ml (10 μM). As for the experimental part: The normal human keratinocytes are cultured in 75 cm^2 flasks, in an incubator at 37° C. under a humid atmosphere containing 5% CO2, in serum-free keratinocyte medium supplemented with EGF (Epidermal Growth Factor) and with BPE (Bovine Pituitary Extract) (KSFMc) (Gibco ref: 17005-034+37000-015). The cells are seeded (day D0) into 48-well microplates in a proportion of 50 000 cells in 500 μL of medium per well. After incubation for 24 hours (day D1), the cells have become adherent and the treatment step is then carried out. The seeding medium is removed and the treatment medium containing the ingredients to be evaluated at the various concentrations, or the excipient thereof (for example DMSO) in the same proportion, is then added to each culture well. A peak of survivin expression by the cells is observed after treatment for 16 hours. The wells are then rinsed with PBS. Half the wells of the microplate are used to lyse the keratinocytes and to assay the intracellular survivin. […] The total proteins are assayed using a BCA colorimetric test (reference: BC Assay Kit, Uptima Interchim), by measuring absorbance at 570 nm. […] After the enzyme reaction has been blocked with sulfuric acid, the survivin is quantified by measuring absorbance at 450 nm.
(In general: An ELISA detects its analyte on a solid surface through an enzyme-linked reagent.)

Take `C=C[C@@]1(C)CC(=O)[C@]2(O)[C@@]3(C)[C@@H](O)CCC(C)(C)[C@@H]3[C@H](O)[C@H](OC(C)=O)[C@@]2(C)O1` [Forskolin, forskolin]: the “% activation” value (16 h, solvent control = 100%) came to 147.9%. The Survivin (16 h treatment, normal human keratinocytes) was 7.27 pg/mg proteins.

For the origin of these results see US20100040706A1, “METHOD OF ANTI-AGEING COSMETIC CARE BY STIMULATION OF SURVIVIN EXPRESSION” (LVMH RECHERCHE, priority 2008, published 2010).
